Laboratory results published in US9512114B2, “Substituted aminopyrimidine compounds and methods of use” (Calitor Sciences, LLC, priority 2013, dated 2016).

How the values were obtained:
PI3K (p120γ) (h) = PI3K (p120γ) (h) (Homo sapiens (Human), UniProt P48736); assay: PI3K (p120γ) (h) non-radioactive HTRF kinase assay; assay type: biochemical; settings: performed at Millipore UK Ltd
Procedure: (§1) The above assay procedure can be used to determine the IC50 for inhibition and/or the inhibition constant, Ki.
PI3K (p120γ) (h) [Non-Radioactive Assay]
(§2) PI3K (p120γ) (h) is incubated in assay buffer containing 10 μM phosphatidylinositol-4, 5-bisphosphate and MgATP (concentration as required). The reaction is initiated by the addition of the MgATP mix. After incubation for 30 minutes at room temperature, the reaction is stopped by the addition of stop solution containing EDTA and biotinylated phosphatidylinositol-3,4,5-trisphosphate. Finally, detection buffer is added, which contains europium-labelled anti-GST monoclonal antibody, GST-tagged GRP1 PH domain and streptavidin-allophycocyanin. The plate is then read in timeresolved fluorescence mode and the homogenous time-resolved fluorescence (HTRF) signal is determined according to the formula HTRF=10000×(Em665 nm/Em620 nm).
(§3) The kinase assays described herein were performed at Millipore UK Ltd, Dundee Technology Park, Dundee DD2 1SW, UK.

[1] = Pharmacokinetic profiles in rats; assay type: in vivo, rat; settings: for Cl/F / AUC(0-t) / half-life / Vd: iv dosing 1 mg/kg; for F: oral vs iv (iv 1 mg/kg; p.o. generally 5 or 10 mg/kg); for AUC(0-t) / half-life / Vd: rat, plasma; for Vd: read-out: Vss
Outline: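 In rats, dogs and monkeys, IV dose was generally 1 or 2 mg/kg. Oral dose was generally 5 or 10 mg/kg in rats and 10 mg/kg in dogs and monkeys, given as solution, suspension or capsule. Plasma sampled over up to 24 h and analysed by LC/MS/MS.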

[2] = Compound stability in human liver microsomes; assay type: in vitro ADME; settings: pH 7.4; for CLint scaled at 5 μM: liver microsomes, in vivo CLint extrapolated from human liver microsome incubation; for half-life at 5 μM: human liver microsomes 0.5 mg protein/mL, compound 5 μM, NADPH 1.0 mM, 37° C., read-out: Human T1/2
Outline: (§4)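 Human or rat liver microsomes (0.5 mg protein/mL) incubated with compound (5 μM) and NADPH (1.0 mM) in 100 mM potassium phosphate, pH 7.4, 0.05% DMSO, 37° C, sampled 0–60 min and quenched with cold acetonitrile. Remaining compound quantified by LC/MS/MS as % of time zero; CLint extrapolated.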

[3] = Compound stability in rat liver microsomes; assay type: in vitro ADME; settings: pH 7.4; for CLint scaled at 5 μM: liver microsomes, in vivo CLint extrapolated from rat liver microsome incubation; for half-life at 5 μM: rat liver microsomes 0.5 mg protein/mL, compound 5 μM, NADPH 1.0 mM, 37° C., read-out: Rat T1/2
Outline: as §4

PI3K (p110β/p85α) (h) = PI3K (p110β/p85α) (h) (Homo sapiens (Human), UniProt P42338); assay: PI3K (p110β/p85α) (h) non-radioactive HTRF kinase assay; assay type: biochemical; settings: performed at Millipore UK Ltd
Sequence of PI3K (p110β/p85α) (h) (P42338 whole entry): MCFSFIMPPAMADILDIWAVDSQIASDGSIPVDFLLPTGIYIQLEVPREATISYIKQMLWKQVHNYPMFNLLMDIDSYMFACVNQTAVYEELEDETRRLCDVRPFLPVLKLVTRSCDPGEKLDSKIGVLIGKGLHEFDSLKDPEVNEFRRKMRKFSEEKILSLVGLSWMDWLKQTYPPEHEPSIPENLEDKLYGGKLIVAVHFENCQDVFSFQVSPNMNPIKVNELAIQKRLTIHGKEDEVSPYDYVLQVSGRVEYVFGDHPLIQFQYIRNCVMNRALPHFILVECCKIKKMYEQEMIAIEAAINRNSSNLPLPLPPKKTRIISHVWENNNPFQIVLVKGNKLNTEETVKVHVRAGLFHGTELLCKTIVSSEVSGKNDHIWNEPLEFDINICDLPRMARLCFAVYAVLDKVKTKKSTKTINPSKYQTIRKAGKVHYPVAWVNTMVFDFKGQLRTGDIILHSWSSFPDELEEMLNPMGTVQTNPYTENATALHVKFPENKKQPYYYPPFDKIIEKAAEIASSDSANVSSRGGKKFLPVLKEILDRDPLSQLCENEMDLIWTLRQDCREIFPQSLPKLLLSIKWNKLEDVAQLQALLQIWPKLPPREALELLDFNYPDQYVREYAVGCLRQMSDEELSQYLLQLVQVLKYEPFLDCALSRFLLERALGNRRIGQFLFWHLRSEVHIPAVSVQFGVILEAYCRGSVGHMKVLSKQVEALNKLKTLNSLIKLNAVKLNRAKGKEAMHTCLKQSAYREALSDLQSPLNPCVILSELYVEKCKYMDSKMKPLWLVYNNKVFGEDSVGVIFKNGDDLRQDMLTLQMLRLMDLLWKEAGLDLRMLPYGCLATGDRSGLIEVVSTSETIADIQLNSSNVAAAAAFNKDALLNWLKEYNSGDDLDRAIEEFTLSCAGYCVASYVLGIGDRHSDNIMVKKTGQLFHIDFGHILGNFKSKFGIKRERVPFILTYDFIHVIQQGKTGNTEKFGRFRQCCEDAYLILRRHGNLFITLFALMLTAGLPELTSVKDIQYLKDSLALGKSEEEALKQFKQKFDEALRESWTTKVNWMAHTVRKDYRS
Sequence of PI3K (p110β/p85α) (h) (P27986 whole entry partner): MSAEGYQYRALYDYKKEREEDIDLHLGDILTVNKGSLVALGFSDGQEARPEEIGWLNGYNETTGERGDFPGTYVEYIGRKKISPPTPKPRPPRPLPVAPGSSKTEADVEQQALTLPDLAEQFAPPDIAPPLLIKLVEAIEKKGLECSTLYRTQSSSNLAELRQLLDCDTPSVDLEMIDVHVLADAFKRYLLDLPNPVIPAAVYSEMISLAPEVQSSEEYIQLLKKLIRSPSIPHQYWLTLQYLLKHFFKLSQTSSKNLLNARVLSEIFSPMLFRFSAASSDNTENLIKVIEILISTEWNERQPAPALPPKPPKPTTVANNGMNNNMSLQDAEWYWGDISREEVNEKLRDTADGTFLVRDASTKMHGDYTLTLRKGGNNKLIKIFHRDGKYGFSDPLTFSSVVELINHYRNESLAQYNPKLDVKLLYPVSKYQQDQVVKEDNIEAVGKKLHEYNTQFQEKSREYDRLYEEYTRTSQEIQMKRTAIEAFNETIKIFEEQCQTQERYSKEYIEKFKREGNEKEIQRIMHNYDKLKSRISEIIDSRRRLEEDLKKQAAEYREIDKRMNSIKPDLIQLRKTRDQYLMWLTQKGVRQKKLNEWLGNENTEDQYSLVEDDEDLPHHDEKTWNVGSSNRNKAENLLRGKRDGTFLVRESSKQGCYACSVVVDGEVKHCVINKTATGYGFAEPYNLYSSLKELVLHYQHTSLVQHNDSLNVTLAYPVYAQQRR
Procedure: as §1
PI3K (p110β/p85α) (h) [Non-Radioactive Assay]
as §2, with “([…])” for “(p120γ)”
as §3

Sequence of PI3K (p120γ) (h) (P48736 whole entry): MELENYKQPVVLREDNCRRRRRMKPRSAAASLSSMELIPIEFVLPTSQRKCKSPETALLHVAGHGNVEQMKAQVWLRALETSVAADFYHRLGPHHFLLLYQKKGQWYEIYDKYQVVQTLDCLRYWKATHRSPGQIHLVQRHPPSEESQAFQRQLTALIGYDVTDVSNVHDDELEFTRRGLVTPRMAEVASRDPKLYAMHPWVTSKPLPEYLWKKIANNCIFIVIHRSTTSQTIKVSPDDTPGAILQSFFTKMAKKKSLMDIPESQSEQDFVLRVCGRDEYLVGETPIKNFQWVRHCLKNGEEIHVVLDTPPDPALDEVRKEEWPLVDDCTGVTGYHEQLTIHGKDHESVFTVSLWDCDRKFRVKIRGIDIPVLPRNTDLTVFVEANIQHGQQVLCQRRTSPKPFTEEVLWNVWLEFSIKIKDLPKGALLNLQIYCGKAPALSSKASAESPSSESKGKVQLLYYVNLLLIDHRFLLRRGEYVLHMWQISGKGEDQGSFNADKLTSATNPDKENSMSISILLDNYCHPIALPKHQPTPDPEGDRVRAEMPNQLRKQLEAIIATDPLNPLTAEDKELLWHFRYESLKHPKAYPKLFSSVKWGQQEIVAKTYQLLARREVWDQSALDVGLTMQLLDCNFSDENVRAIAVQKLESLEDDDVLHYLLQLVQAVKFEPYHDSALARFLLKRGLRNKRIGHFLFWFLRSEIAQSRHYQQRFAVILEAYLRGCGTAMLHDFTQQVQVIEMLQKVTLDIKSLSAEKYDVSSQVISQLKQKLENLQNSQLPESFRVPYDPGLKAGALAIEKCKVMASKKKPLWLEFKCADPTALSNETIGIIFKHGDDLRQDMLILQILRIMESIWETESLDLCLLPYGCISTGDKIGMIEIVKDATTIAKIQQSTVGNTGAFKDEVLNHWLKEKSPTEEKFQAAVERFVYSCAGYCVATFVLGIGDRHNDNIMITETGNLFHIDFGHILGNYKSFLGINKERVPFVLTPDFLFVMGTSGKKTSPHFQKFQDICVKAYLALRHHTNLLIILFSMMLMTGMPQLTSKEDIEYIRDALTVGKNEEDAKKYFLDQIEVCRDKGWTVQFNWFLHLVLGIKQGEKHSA

IC50 (PI3K (p120γ) (h)) [nM] | Cl/F [1] [mL/min/kg] | F [1] [%] | AUC(0-t) [1] [ng·h/mL] | half-life [1] [min] | Vd [1] [L/kg] | CLint scaled at 5 μM [2] [mL/min/kg] | half-life at 5 μM [2] [min] | CLint scaled at 5 μM [3] [mL/min/kg] | half-life at 5 μM [3] [min] | IC50 (PI3K (p110β/p85α) (h)) [nM] | SMILES
74 | 57.8 | 93.06 | 291 | 55.2 | 1.94 | 196 | 8.88 | 229 | 10.9 | – | Cc1noc(-c2c(N)ncnc2N[C@@H](C)c2cc3cccc(Cl)c3c(=O)n2-c2ccccc2)n1 [Ex. 8, (S)-3-(1-((6-amino-5-(3-methyl-1,2,4-oxadiazol-5-yl)pyrimidin-4-yl)amino)ethyl)-8-chloro-2-phenylisoquinolin-1(2H)-one]
65 | 50.3 | 121.0 | 337 | 50.4 | 3.14 | 51.8 | 33.6 | 22.3 | 112 | 176 | Cc1noc(-c2c(N)ncnc2N[C@@H](C)c2cc3cccc(-c4cnn(C)c4)c3c(=O)n2C2CC2)n1 [Ex. 26, (S)-3-(1-((6-amino-5-(3-methyl-1,2,4-oxadiazol-5-yl)pyrimidin-4-yl)amino)ethyl)-2-cyclopropyl-8-(1-methyl-1H-pyrazol-4-yl)isoquinolin-1 (2H)-one]
325 | 33.3 | 81.0 | 497 | 79.2 | 3.31 | 28.1 | 61.9 | 14.5 | 171 | 900 | Cc1nnc(-c2c(N)ncnc2N[C@@H](C)c2cc3cccc(-c4cnn(C)c4)c3c(=O)n2C2CC2)o1 [Ex. 25, (S)-3-(1-((6-amino-5-(5-methyl-1,3,4-oxadiazol-2-yl)pyrimidin-4-yl)amino)ethyl)-2-cyclopropyl-8-(1-methyl-1H-pyrazol-4-yl)isoquinolin-1 (2H)-one]
255 | 17.3 | 66.87 | 964 | 82.8 | 1.04 | 83.7 | 20.8 | 185 | 13.4 | – | Cc1nnc(-c2c(N)ncnc2N[C@@H](C)c2cc3cccc(Cl)c3c(=O)n2-c2ccccc2)o1 [Ex. 9, (S)-3-(1-((6-amino-5-(5-methyl-1,3,4-oxadiazol-2-yl)pyrimidin-4-yl)amino)ethyl)-8-chloro-2-phenylisoquinolin-1(2H)-one]
387 | 33.3 | 78.78 | 498 | 58.8 | 2.4 | 85.3 | 20.4 | 102 | 24.4 | 30 | Cc1nnc(-c2c(N)ncnc2N[C@@H](C)c2cc3cccc(Cl)c3c(=O)n2C2CC2)o1 [Ex. 4, (S)-3-(1-((6-amino-5-(5-methyl-1,3,4-oxadiazol-2-yl)pyrimidin-4-yl)amino)ethyl)-8-chloro-2-cyclopropylisoquinolin-1(2H)-one]
